From PubChem BioAssay AID180 (DTP/NCI, 2004)
Several values for one entry are separate records, joined by “and”; a condition that tells them apart may be missing. Equal entries are not always repeated.

Test system: BDF1 mice, Adenocarcinoma 755 s.c., tumor weight T/C
Experiment: NCI In Vivo Anticancer Drug Screen. Data for tumor model Adenocarcinoma 755 (subcutaneous) in B6D2F1 (BDF1) mice
Conditions: endpoint: mean tumor weight, schedule: Q01DX011 (ip), higher = larger tumour
In short: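 Transplantable tumor implanted; mice dosed with compound or vehicle; survival or tumor size recorded; ratio of treated to vehicle control reported.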

With `CCN(CC)c1nc(SCc2ccc(Cl)cc2Cl)ncc1C` the T/C (dose: 15.0 mg/kg/injection, vehicle: methylcellulose (MC)) was 56 % of control, the T/C (dose: 31.0 mg/kg/injection, vehicle: methylcellulose (MC)) was 89 % of control and the T/C (dose: 62.0 mg/kg/injection, vehicle: methylcellulose (MC)) was 71 % of control. The T/C (dose: 125.0 mg/kg/injection, vehicle: methylcellulose (MC)) was 61 % of control and the T/C (dose: 250.0 mg/kg/injection, vehicle: methylcellulose (MC)) was 54 % of control.
`CCCOP(=S)(N1CC1)N1CC1` was tested, and the T/C (dose: 3.3 mg/kg/injection, vehicle: methylcellulose (MC)) was 74 % of control, the T/C (dose: 6.8 mg/kg/injection, vehicle: methylcellulose (MC)) was 77 % of control and the T/C (dose: 13.5 mg/kg/injection, vehicle: methylcellulose (MC)) was 40 % of control.
With `CCOC1CCCC(n2cnc3c(=S)nc[nH]c32)O1` (centres undefined) the T/C (dose: 4.69 mg/kg/injection, vehicle: methylcellulose (MC)) was 29 % of control and the T/C (dose: 9.38 mg/kg/injection, vehicle: methylcellulose (MC)) was 2 % of control.
For `Cc1cccc(N=Nc2c(S(=O)(=O)O)cc3cc(NC(=O)Nc4ccc5c(O)c(N=Nc6ccc7cc(S(=O)(=O)O)ccc7c6)c(S(=O)(=O)O)cc5c4)ccc3c2O)c1`, the T/C (dose: 45.0 mg/kg/injection, vehicle: carboxymethylcellulose (CMC)) was 81 % of control.
With `CNC(=O)Cc1ccccc1` the T/C (dose: 125.0 mg/kg/injection, vehicle: water) was 70 % of control, the T/C (dose: 250.0 mg/kg/injection, vehicle: water) was 63 % of control and the T/C (dose: 500.0 mg/kg/injection, vehicle: water) was 30 % of control.
In the case of `Cc1ccc(N=S=O)cc1`, the T/C (dose: 125.0 mg/kg/injection, vehicle: saline) is reported as 68 % of control.
`CC(CNC(=O)CCBr)NC(=O)CCBr` (centres undefined) was tested, and the T/C (dose: 37.5 mg/kg/injection, vehicle: carboxymethylcellulose (CMC)) was 79 % of control and 81 % of control, the T/C (dose: 75.0 mg/kg/injection, vehicle: carboxymethylcellulose (CMC)) was 26 % of control and 36 % of control and the T/C (dose: 150.0 mg/kg/injection, vehicle: carboxymethylcellulose (CMC)) was 10 % of control and 19 % of control.
With `Nc1nc(=S)c2ncn(C3OC(COC(=O)c4ccc(Cl)cc4)C(OC(=O)c4ccc(Cl)cc4)C3OC(=O)c3ccc(Cl)cc3)c2[nH]1` (centres undefined) the T/C (dose: 0.88 mg/kg/injection, vehicle: carboxymethylcellulose (CMC)) was 94 % of control, the T/C (dose: 1.75 mg/kg/injection, vehicle: carboxymethylcellulose (CMC)) was 65 % of control and the T/C (dose: 3.5 mg/kg/injection, vehicle: carboxymethylcellulose (CMC)) was 102 % of control. For the same compound, the T/C (dose: 6.0 mg/kg/injection, vehicle: carboxymethylcellulose (CMC)) was 72 % of control, the T/C (dose: 10.0 mg/kg/injection, vehicle: carboxymethylcellulose (CMC)) was 6 % of control and the T/C (dose: 12.0 mg/kg/injection, vehicle: carboxymethylcellulose (CMC)) was 23 % of control. The T/C (dose: 16.0 mg/kg/injection, vehicle: carboxymethylcellulose (CMC)) was 1 % of control and the T/C (dose: 50.0 mg/kg/injection, vehicle: carboxymethylcellulose (CMC)) was 2 % of control and 3 % of control.
In the case of `Cc1ccc(CSc2ncnc3nc[nH]c23)c2ccccc12`, the T/C (dose: 75.0 mg/kg/injection, vehicle: methylcellulose (MC)) is reported as 54 % of control, the T/C (dose: 150.0 mg/kg/injection, vehicle: methylcellulose (MC)) is reported as 33 % of control and the T/C (dose: 300.0 mg/kg/injection, vehicle: methylcellulose (MC)) is reported as 38 % of control. The T/C (dose: 600.0 mg/kg/injection, vehicle: methylcellulose (MC)) was 11 % of control.
`Cn1cnc(=N)c2[nH]cnc21` was tested, and the T/C (dose: 30.0 mg/kg/injection, vehicle: carboxymethylcellulose (CMC)) was 97 % of control, the T/C (dose: 60.0 mg/kg/injection, vehicle: carboxymethylcellulose (CMC)) was 93 % of control and the T/C (dose: 120.0 mg/kg/injection, vehicle: carboxymethylcellulose (CMC)) was 73 % of control. For the same compound, the T/C (dose: 240.0 mg/kg/injection, vehicle: carboxymethylcellulose (CMC)) was 93 % of control.
